Laboratory results taken from ChEMBL document CHEMBL1142886, “Substrate specificity analysis and inhibitor design of homoisocitrate dehydrogenase” (Bioorg Med Chem, 2007).

Tests used:
[1] = biological target: Homoisocitrate dehydrogenase, mitochondrial (Saccharomyces cerevisiae S288c, UniProt P40495); assay: Inhibition of Saccharomyces cerevisiae homoisocitrate dehydrogenase expressed in Escherichia coli Rosetta cells above 10 mM
[2] = Inhibition of Deinococcus radiodurans homoisocitrate dehydrogenase

Chain of Homoisocitrate dehydrogenase, mitochondrial (P40495 whole entry): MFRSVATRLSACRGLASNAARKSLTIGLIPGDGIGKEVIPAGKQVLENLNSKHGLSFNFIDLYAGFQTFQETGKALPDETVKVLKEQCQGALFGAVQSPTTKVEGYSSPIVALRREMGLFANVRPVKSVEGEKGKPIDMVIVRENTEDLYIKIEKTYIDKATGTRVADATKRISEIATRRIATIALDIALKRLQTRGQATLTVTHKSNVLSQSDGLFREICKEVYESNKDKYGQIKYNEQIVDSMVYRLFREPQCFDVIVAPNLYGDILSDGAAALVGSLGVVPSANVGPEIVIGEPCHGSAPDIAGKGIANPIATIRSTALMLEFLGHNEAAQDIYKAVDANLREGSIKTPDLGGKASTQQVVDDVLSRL

SMILES	Ki [1] [µM]	Ki [2] [µM]
O=C(O)/C(=C/CCO)[C@@H](O)C(=O)O	1400	5200
O=C(O)/C(=C\CCO)[C@@H](O)C(=O)O	510	15300
O=C(O)CC/C=C(\C(=O)O)[C@@H](O)C(=O)O	72	260
C=C[C@H](C(=O)O)[C@@H](O)C(=O)O		88
O=C(O)CC/C=C(/C(=O)O)[C@@H](O)C(=O)O	790	3100
